# US9376395B2 (priority 2011, dated 2016)
# Legend:
# Human NSCLC A549 cells = conditions: 60 mg/kg i.v. day 1, 4, 8, 11, 18, 25; 10% HPβCD formulation; balb/c nu/nu mice
# NCI-60 cell lines = assay: NCI-60 cell line panel screening; type: cell-based, human; conditions: vs Bendamustine
SMILES,Body weight (Human NSCLC A549 cells),T/C (%) (Human NSCLC A549 cells),Tumor volume (mm3) (Human NSCLC A549 cells),Tumor weight (Human NSCLC A549 cells),fold more potent than Bendamustine in the NCI-60 cell lines (NCI-60 cell lines)
"Cn1c(CCCC(=O)O)nc2cc(N(CCCl)CCCl)ccc21 [Bendamustine, reference compound]",28.6 g,71.9%,1716.5 mm3,1.97 g,
Cn1c(CCCCCCC(=O)NO)nc2cc(N(CCCl)CCCl)ccc21 [NL-101],27.6 g,37.7%,772.7 mm3,0.88 g,25-100 fold
